Data reported in paper PMC3714282, “Pharmacometabolomics of Response to Sertraline and to Placebo in Major Depressive Disorder – Possible Role for Methoxyindole Pathway” (PLoS ONE, 2013).

Tested on: 5-Methoxytryptamine (5-MTPM)
Assay: GCTOF-MS measurement of serum 5-Methoxytryptamine (5-MTPM): change from baseline at week 1 and week 4
Type: in vivo, human
Conditions: for Change in 5-MTPM levels / Change 5-MTPM: serum; for Change in 5-MTPM levels: four weeks; for Change 5-MTPM: log-transformed concentration
Description: Samples were analyzed using a liquid chromatography electrochemical array (LCECA) platform that has been extensively validated and used in our prior studies in neurodegenerative and psychiatric disorders [30]–[34]. The method includes multiple compounds from the tyrosine, tryptophan, sulfur amino acids and purine pathways, and markers of oxidative stress and protection (for the list of metabolites and abbreviations see Table 1). Levels of 5-Methoxytryptamine (5-MTPM) were measured using a gas chromatography time-of-flight-mass spectrometry (GCTOF-MS) platform. Samples were prepared for analysis as previously described. During the sample preparation, pools were created from equal volumes of subaliquots of all samples. Concentrations of metabolites in the individual samples were expressed as a percentage of the concentration of those metabolites in the averaged pool.
Data preprocessing: We first removed the metabolites that have more than 40% missing values. […] Principal components analysis (PCA; SIMCA-P+12.0) was used to identify outliers. The analysis was performed for each time point. […] Subjects with ≥3 standard deviations away from the center of data cloud within two principal components (PC's) scores scatter plot were considered outliers and were removed from further analysis.
These analyses were conducted separately for the sertraline and placebo groups. Between groups t-tests were used to compare baseline to one week and baseline to four week change scores between the sertraline and placebo groups.
Signatures of response to sertraline and placebo were identified by using paired t-tests to compare week 4 metabolite levels to baseline metabolite levels in the responders and non-responders to therapy. […] These analyses were also performed to evaluate changes in ratios of individual metabolites within (e.g., 5-HT/5-HTP) and between branches of tryptophan pathway (e.g., KYN/MEL).

## CN[C@H]1CC[C@@H](c2ccc(Cl)c(Cl)c2)c2ccccc21 [Sertraline, sertraline]
After four week of treatment, non-responders
  Change of 5-MTPM (average change of log-transformed concentration): -0.11
After four week of treatment, responders
  Change of 5-MTPM (average change of log-transformed concentration): -0.42
After one week of treatment, non-responders
  Change of 5-MTPM (average change of log-transformed concentration): -0.052
Good responders to sertraline
  Change in 5-MTPM levels: significant decrease
non-responders to sertraline
  Change in 5-MTPM levels: not significantly changed
After four weeks, sertraline group
  Change 5-MTPM: −0.29
After one week, responders to sertraline
  Change 5-MTPM: -0.21
